# In PMC9804224, “Statin activation of skeletal ryanodine receptors (RyR1) is a class effect but separable from HMG‐CoA reductase inhibition” (British Journal of Pharmacology, 2022):
# What was measured:
# Type in all cases: biochemical
# [1] = target: T1, skeletal ryanodine receptor (RyR1) (Ovis aries, UniProt A0ACI6NWU0); test: increase of [3H]ryanodine binding to SR membrane vesicles (channel activation); set-up: native RyR1 in skeletal muscle SR membrane vesicles
# [2] = target: T1, skeletal ryanodine receptor (RyR1); test: single-channel recording in planar lipid bilayers (activation); also [3H]ryanodine binding EC50 […]; set-up: native RyR1 channels from skeletal muscle heavy SR vesicles
# [3] = target: T1, skeletal ryanodine receptor (RyR1); test: as above; set-up: native RyR1 channels from skeletal muscle heavy SR vesicles; remark: listed apart in the source
compound,measurement,setting,value
CC(C)c1nc(N(C)S(C)(=O)=O)nc(-c2ccc(F)cc2)c1/C=C/[C@@H](O)C[C@@H](O)CC(=O)O [rosuvastatin],EC50,[1]; read-out: EC50,490 nM
CC[C@H](C)C(=O)O[C@H]1C[C@H](O)C=C2C=C[C@H](C)[C@H](CC[C@@H](O)C[C@@H](O)CC(=O)O)[C@H]21 [pravastatin],EC50,[1],440 nM
COCc1c(C(C)C)nc(C(C)C)c(/C=C/[C@@H](O)C[C@@H](O)CC(=O)O)c1-c1ccc(F)cc1 [cerivastatin],EC50,[2],130 nM
CC(C)c1c(C(=O)Nc2ccccc2)c(-c2ccccc2)c(-c2ccc(F)cc2)n1CC[C@@H](O)C[C@@H](O)CC(=O)O [atorvastatin],EC50,[3],29 nM
